Measurements published in publication PMC8125686, “Molecular Basis of Multiple Mitochondrial Dysfunctions Syndrome 2 Caused by CYS59TYR BOLA3 Mutation” (International Journal of Molecular Sciences, 2021).

Biological target: T1, NFU1 (Homo sapiens, UniProt Q9UMS0)
T1 sequence (Q9UMS0 10-254): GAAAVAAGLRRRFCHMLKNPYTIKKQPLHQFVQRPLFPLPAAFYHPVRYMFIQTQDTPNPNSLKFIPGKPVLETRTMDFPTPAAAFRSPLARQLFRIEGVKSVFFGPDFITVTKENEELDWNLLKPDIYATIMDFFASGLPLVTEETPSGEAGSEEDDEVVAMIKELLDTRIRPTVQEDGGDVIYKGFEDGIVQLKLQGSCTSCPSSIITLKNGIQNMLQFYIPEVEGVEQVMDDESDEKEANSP
Test: 1H-15N HSQC NMR of cluster assembly on 15N-labelled apo NFU1
Type: binding
Conditions: cluster donor [2Fe-2S] C59Y BOLA3-GLRX5 at 1:1; 5 mM DTT; 5 mM GSH; anaerobic

Compound: [S]12[Fe]3[S]4[Fe]1[S]1[Fe]2[S]3[Fe]41 [[4Fe–4S]2+ cluster]
- amount of [4Fe-4S] NFU1 formed in the final mixture: 25%
